Laboratory results published in patent publication US9440910B2, “Reference markers for fesoterodine fumarate” (ALEMBIC PHARMACEUTICALS LIMITED, priority 2012, dated 2016).
Counter-ions that a name gives are not always drawn.

Key:
Format in all cases: physicochemical
[1] = Stability Study of Fesoterodine Fumarate at 30° C.+/−2° C. 65%+/−5% RH
Procedure: (§1) Present inventors carried out the stability study of Fesoterodine Fumarate at different conditions and summarized the table shown below which easily indicate how the impurity at 1.82 RRT is increasingly generated.
Stability Study of Fesoterodine Fumarate at 30° C.+/−2° C. 65%+/−5% RH
(§2) The LC system, used for method development and forced degradation studies and method validation was Waters-Alliance (manufactured by Waters India Ltd) LC system with a photo diode detector. The out put signal was monitored and processed using Empower software system (designed by Waters India) on IBM computer (Digital Equipment Co). • The chromatographic column used was a Waters Aquity BEH C18 100 mm×2.1 mm column with 1.7 μm particles. The mobile phase consists buffer (1.4 g of Disodium hydrogen phosphate in 1000 mL of water pH-8.0 with ortho phosphoric acid), and solvent is acetonitrile. The flow rate of the mobile phase was kept at 0.3 ml/min. beginning with the gradient ratio of mobile phase buffer and solvent 50:50 (v/v), system was continued at the same ratio for 2 minutes. The ratio was changed linearly 30:70(v/v) within 7 minutes and again system was continued at the same ratio for 9 minutes. After 1.5 minutes the initial gradient of 50:50 is for 2.5 minutes to be conditioned far every analysis. The column temperature was maintained at 45° C. and the wavelength was monitored at a wavelength of 220 nm. The injection volume was 3 μL for related substances determination. Acetonitrile was used as diluent during the standard, and test samples preparation.

[2] = Stability Study of Fesoterodine Fumarate at 2-8° C.
Procedure: as §1
Stability Study of Fesoterodine Fumarate at 2-8° C.
as §2

[3] = Stability Study of Fesoterodine Fumarate at 40° C.+/−2° C. 75%+/−5% RH
Procedure: as §1
Stability Study of Fesoterodine Fumarate at 40° C.+/−2° C. 75%+/−5% RH
as §2

[4] = Analysis of the stability samples of fesoterodine fumarate; settings: after 2-6 months stability at 25° C. and above temperature; not observed during initial analysis
Procedure: During analysis of the stability samples of fesoterodine fumarate, after 2-6 months stability at 25° C. and above temperature, the unknown impurity (1.82 RRT) detected which was not observed during initial analysis.
as §2, with “The injection volume was 3 μL for related substances determination. Acetonitrile was used as diluent during the standard, and test samples preparation.” left out

[5] = Stability Study of Fesoterodine Fumarate at 25° C.+/−2° C. 60%+/−5% RH
Procedure: as §1
Stability Study of Fesoterodine Fumarate at 25° C.+/−2° C. 60%+/−5% RH
as §2

## CC(C)C(=O)Oc1ccc(CO)cc1[C@H](CCN(C(C)C)C(C)C)c1ccccc1 [Fesoterodine Fumarate, [2-[(1R)-3-(Di(propan-2-yl)amino)-1-phenylpropyl]-4-(hydroxymethyl)phenyl]2-methylpropanoate]
[1]; 1 month
  0.29 RRT (Fumaric acid ester): 0.06%
  Dihydroxy impurity (active metabolite): 0.23%
  Purity of Fesoterodine fumarate: 99.43%
[1]; 2 month
  0.29 RRT (Fumaric acid ester): 0.09%
  1.82 RRT: 0.02%
  Dihydroxy impurity (active metabolite): 0.45%
  Purity of Fesoterodine fumarate: 99.15%
[1]; 3 month
  0.29 RRT (Fumaric acid ester): 0.10%
  1.82 RRT: 0.07%
  Dihydroxy impurity (active metabolite): 0.71%
  Purity of Fesoterodine fumarate: 98.84%
[1]; 4 month
  0.29 RRT (Fumaric acid ester): 0.09%
  1.82 RRT: 0.11%
  Dihydroxy impurity (active metabolite): 0.76%
  Purity of Fesoterodine fumarate: 98.74%
[1]; Initial
  0.29 RRT (Fumaric acid ester): 0.03%
  Dihydroxy impurity (active metabolite): 0.07%
  Purity of Fesoterodine fumarate: 99.69%
[2]; 3 month
  0.29 RRT (Fumaric acid ester): 0.04%
  Dihydroxy impurity (active metabolite): 0.11%
  Purity of Fesoterodine fumarate: 99.61%
[2]; 6 month
  0.29 RRT (Fumaric acid ester): 0.05%
  Dihydroxy impurity (active metabolite): 0.15%
  Purity of Fesoterodine fumarate: 99.52%
[2]; Initial
  0.29 RRT (Fumaric acid ester): 0.03%
  Dihydroxy impurity (active metabolite): 0.07%
  Purity of Fesoterodine fumarate: 99.69%
[3]; 1 month
  0.29 RRT 0.29 RRT (Fumaric acid ester): 0.10%
  1.82 RRT: 0.06%
  Dihydroxy impurity (active metabolite): 0.64%
  Purity of Fesoterodine fumarate: 98.92%
[3]; Initial
  0.29 RRT 0.29 RRT (Fumaric acid ester): 0.03%
  Dihydroxy impurity (active metabolite): 0.07%
  Purity of Fesoterodine fumarate: 99.69%
[4]
  unknown impurity (1.82 RRT): detected
[5]; 1 month
  0.29 RRT (Fumaric acid ester): 0.05%
  Dihydroxy impurity (active metabolite): 0.15%
  Purity of Fesoterodine fumarate: 99.52%
[5]; 2 month
  0.29 RRT (Fumaric acid ester): 0.07%
  Dihydroxy impurity (active metabolite): 0.27%
  Purity of Fesoterodine fumarate: 99.38%
[5]; 3 month
  0.29 RRT (Fumaric acid ester): 0.08%
  1.82 RRT: 0.01%
  Dihydroxy impurity (active metabolite): 0.40%
  Purity of Fesoterodine fumarate: 99.25%
[5]; 4 month
  0.29 RRT (Fumaric acid ester): 0.07%
  1.82 RRT: 0.02%
  Dihydroxy impurity (active metabolite): 0.53%
  Purity of Fesoterodine fumarate: 99.11%
[5]; 6 month
  0.29 RRT (Fumaric acid ester): 0.12%
  1.82 RRT: 0.11%
  Dihydroxy impurity (active metabolite): 1.02
  Purity of Fesoterodine fumarate: 98.42%
[5]; Initial
  0.29 RRT (Fumaric acid ester): 0.03%
  Dihydroxy impurity (active metabolite): 0.07%
  Purity of Fesoterodine fumarate: 99.69%
